These results are taken from publication PMC2680961, “Homologous desensitization of signalling by the alpha (α) isoform of the human thromboxane A2 receptor: A specific role for nitric oxide signalling” (Biochimica et Biophysica Acta, 2007).

Assay [1] addresses T1, TPα^S331,T337A (Homo sapiens, UniProt P21731, S331A/T337A).
T1 construct: expressed in transfected cells
T1 sequence (P21731 1-343 S331A/T337A): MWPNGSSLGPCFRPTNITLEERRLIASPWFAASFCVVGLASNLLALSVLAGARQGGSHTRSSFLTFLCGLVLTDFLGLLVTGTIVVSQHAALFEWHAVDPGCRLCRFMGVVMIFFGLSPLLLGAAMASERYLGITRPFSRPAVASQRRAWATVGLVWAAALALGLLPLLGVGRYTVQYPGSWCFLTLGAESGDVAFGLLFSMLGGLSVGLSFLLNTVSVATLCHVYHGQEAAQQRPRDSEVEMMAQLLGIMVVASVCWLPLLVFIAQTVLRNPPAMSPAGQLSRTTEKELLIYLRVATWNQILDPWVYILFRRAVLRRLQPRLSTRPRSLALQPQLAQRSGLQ
Briefly: [3H]SQ29,548 radioligand binding, Scatchard analysis, HEK.TPα^S331,T337A. As to the method:
Cells were harvested by centrifugation at 500×g at 4 °C for 5 min and washed three times with ice-cold Ca^2+/Mg^2+-free phosphate-buffered saline (PBS). TP radioligand binding assays were carried out at 30 °C for 30 min in 100 μl reactions in the presence of 0–40 nM [^3H] […] Protein determinations were carried out using the Bradford assay.
Radioligand binding and Scatchard analysis data were analysed using GraphPad Prisim V4.0 programme (GraphPad Software Inc., San Diego CA, USA). Statistical analyses were carried out using the unpaired Student's t test using the Statworks Analysis Package. p-values ≤ 0.01 indicated statistically significant differences.

Assay [2] deals with T1, TPα^S331,T337A. The experiment in a line: Agonist-mediated TP phosphorylation in whole cells, HEK.TPα^S331,T337A. It counts as cell-based. Particulars: 1 μM U46619 10 min. As to the method:
Agonist-mediated TP phosphorylation in whole cells (1.8–2 × 10^6 cells/10 cm dish) was performed essentially as previously described. Briefly, cells were transiently co-transfected with pADVA (10 μg), pCMV:Gαq (25 μg) plus pcDNA:βArrestin2 (25 μg) approximately 48 h prior to labelling. Thereafter, cells were washed once in phosphate-free DMEM, 10% dialysed FBS and were metabolically labelled for 60 min in the same medium (2 ml/10 cm dish) containing 100 μCi/ml [^32P] orthophosphate (8000–9000 Ci/mmol) at 37 °C, 5% CO2. Where appropriate, the PKG kinase inhibitor KT 5823 (50 nM) or its vehicle was added during the labelling period. Thereafter, U46619 (1 μM) or an equivalent volume of vehicle (0.01% ethanol in HBS; 20 μl) were added and cells were incubated for 10 min at 37 °C, 5% CO2. Reactions were terminated by transferring the dishes to ice and aspirating the labelled medium and HA-epitope tagged TP receptors were processed and immunoprecipitated using the anti-HA 101R antibody as previously described. Electroblots were then exposed to Xomat XAR (Kodak) film to detect ^32P-labelled proteins. Thereafter, blots were subject to phosphorimage analysis, and the intensities of agonist-induced phosphorylation were expressed in arbitrary units relative to basal (vehicle-stimulated) levels. […]

In assay [3] the target is T2, TPα (Homo sapiens, UniProt P21731).
T2 construct: expressed in transfected cells
T2 sequence (P21731 1-343): T1 sequence (P21731 1-343 S331A/T337A) with A331S, A337T
The experiment in a line: IP3 generation, HEK.TPα cells. It counts as cell-based. Conditions: 1 μM U46619 2 min, washout, restimulation at 60 min. As to the method: Intracellular IP3 levels were measured as previously described [[33,43]]. Briefly, cells were harvested by scraping, washed twice in ice-cold PBS and resuspended at approximately 2 × 10^6 cells/200 μl in HEPES-buffered saline (HBS; […], 4.7 mM KCl, 2.2 mM CaCl2, 1.2 mM KH2PO4, 11 mM glucose, 15 mM HEPES–NaOH, pH 7.4), 10 mM LiCl (Walsh et al., 2000). […] Thereafter, cells were stimulated with 1 μM U46619 at 37 °C for 2 min. To assess agonist-mediated homologous desensitization, cells (2 × 10^6 cells/200 μl) were stimulated with 1 μM U46619 at 37 °C for 2 min (Primary stimulation); thereafter, cells were collected by centrifugation (900×g, 5 min); were washed once in 200 μl HBS, 10 mM LiCl and finally resuspended in 200 μl HBS, 10 mM LiCl and were left to recover for 60 min; thereafter, cells were re-stimulated with 1 μM U46619 at 37 °C for 2 min (secondary stimulation). All ligands and […] were pre-diluted in HBS such that 50 μl added to 200 μl of cell suspension in HBS gave the desired final concentration. To determine basal IP3 levels, an equivalent volume (50 μl) of the vehicle HBS was added instead of ligand. The level of IP3 produced was quantified by radio competition assay essentially as described. […]

Changes are numbered by the printed parent chain.

Consider `O=C(O)CCC/C=C\C[C@@H]1[C@H](CNNC(=O)Nc2ccccc2)[C@H]2CC[C@@H]1O2` [SQ29,548], for which the “Bmax (pmol/mg protein ± S.E.M.)” value in assay [1] is recorded as 3.23 ± 0.03 pmol/mg protein.

`CCCCC[C@H](O)/C=C/[C@@H]1[C@@H](C/C=C\CCCC(=O)O)[C@H]2CO[C@@H]1C2` [U46619]: the “U46619-induced phosphorylation of TPα^S331,T337A” value in assay [2] was “failed to undergo significant U46619-induced phosphorylation above basal levels”. Further, in assay [3], the “IP3 generation following secondary restimulation after U46619 pre-incubation” value is “almost completely inhibited IP3 generation”.
